Data reported in US8728797B2, “Yeast membrane protein expression system and its application in drug screening” (priority 2001, dated 2014).

Assays:
[1] = system: S. cerevisiae AD1-8u^− (CDR1−); assay: Disk drug susceptibility assay, parental strain; assay type: cell-based; settings: at the concentrations used; 30° C., 48 h
Procedure: (§1) S. cerevisiae AD1-8u^− (CDR1−) or AD1002 (CDR1+) cells (5×10^5) seeded in top agar on CSM agar plates (containing uracil for AD1-8u^−) were exposed to drugs or chemicals applied to filter disks and incubated at 30° C. for 48 h. The sensitivity of AD1002 to drugs or chemicals was unaffected by supplementing the medium with uridine (0.02% w/v). Amounts of individual drugs applied to disks are given in the Materials and methods section of Example 2, below.
(§2) Drug susceptibility was measured using disk assays on CSM-URA plates (containing 1.5% w/v agar). Plates were seeded with yeast cells suspended in top agar (5 ml, 10^5 cells/ml). For the uracil-dependent parental strain, agar was supplemented with 0.02% uridine. Five microliters of drug solution or solvent control were spotted onto sterile Whatman paper disks on the top agar. The following amounts (nmoles) of drugs were applied to individual disks: fluconazole, 6.5 (Pfizer Ltd., Sandwich, Kent, United Kingdom); ketoconazole, 0.094 (Janssen Research Foundation, Beerse, Belgium); itraconazole, 0.35 (Janssen); miconazole, 0.084 (Janssen); amphotericin B, 54 (E. R. Squibb & Sons, Princeton, N.J.); rhodamine 6G, 10 (Sigma, Penrose, Auckland, N. Z.); rhodamine 123, 50 (Sigma); trifluoperazine 100 (Sigma); benomyl, 10 (Nippon Roche); cycloheximide, 5 (Sigma); carbonyl cyanide p-chlorophenylhydrazone, 490 (CCCP, Sigma); oligomycin, 10 (Sigma); nigericin, 100 (Sigma); tamoxifen, 25 (Sigma); naftifine, 50 (Novartis); quinidine, 500 (Sigma); valinomycin, 20 (Sigma); verapamil, 1000 (Sigma). Agar plates were incubated at 30° C. for 48 h or until clear growth inhibition zones were visible.

[2] = system: S. cerevisiae AD1002 (CDR1+); assay: Disk drug susceptibility assay, AD1002 compared with parental strain; assay type: cell-based; settings: drug on filter disks, 30° C., 48 h
Procedure: as §1, §2

[3] = system: AD-BEN^R (Ben^Rp); assay: Disk diffusion assay, AD-BEN^R; assay type: cell-based, S. cerevisiae; settings: AD-pABC as negative control, 30° C., 48 h
Procedure: (§3) The cells were spread on CSM-agar plates and exposed to the drugs or chemicals applied to filter disks and incubated at 30° C. for 48 h. The amounts of individual drugs are given in the Materials and Methods section of Example 3. Rhodamine 6G and rhodamine 123 were dissolved in ethanol and the other antifungals were dissolved in DMSO.
(§4) Drug susceptibility was measured using disk assays on CSM-URA plates (containing 1.5% w/v agar). Yeast cells (200 μl ml of 5×10^6 cells/ml) were spread on the plates. 10 μl of drug solution or solvent control were spotted onto sterile Whatman paper disks on the pre-spread plates. The following amounts (nmoles) of drugs were applied to individual disks: fluconazole, 633 (Pfizer Ltd., Sandwich, Kent, United Kingdom); itraconazole, 0.23 (Janssen); miconazole, 0.42 (Janssen); cycloheximide, 0.71 (Sigma); rhodamine 6G, 100 (Sigma, Penrose, Auckland, N. Z.); rhodamine 123, 125 (Sigma); cerulenin 4.5 (Sigma); 5-flucytosine 100 (Sigma); amphotericin B, 97 (E. R. Squibb & Sons, Princeton, N.J.); nystatin 65 (Sigma). Agar plates were incubated at 30° C. for 48 h or until clear growth inhibition zones were visible.

[4] = system: AD-ERG11 (Erg11p); assay: Disk diffusion assay, AD-ERG11; assay type: cell-based, S. cerevisiae; settings: AD-pABC as negative control, 30° C., 48 h
Procedure: as §3, §4

[5] = biological target: T1, Cdr1p ATPase (Candida albicans, UniProt P43071, E1416A/I916V/K1177E/L1021S/Q214E/T842S/Y427F); assay: Oligomycin sensitive ATPase/NTPase activity of AD1002 plasma membranes; assay type: biochemical, C. albicans
T1 construct: expressed in transfected cells; host or cells: S. cerevisiae AD1-8u- with pKEN1002 integrated at the PDR5 locus (strain AD1002), plasma membrane fraction
Procedure: Membrane fractions were isolated from S. cerevisiae AD1002 (▪) or parental AD1-8u^− cells (●). ATPase assays were carried out at 30° C. for 30 min, as described in Materials and methods for Example 2. The oligomycin-sensitive activity was determined as the difference in ATPase activity in the presence and absence of 20 μM oligomycin. […] The results are the means (+/−SD) of four determinations carried out on two membrane preparations.
(B) Inhibition profile with KN20 on the oligomycin-sensitive Cdr1p ATPase activity of plasma membranes from AD1002 minus the oligomycin-sensitive ATPase activity of plasma membranes from the isogenic AD1-8u^− strain.
Yeast were grown in YEPD, pH 5.5 at 30° C. until they reached late-exponential phase of growth (OD600 nm=7), washed twice in ice-cold distilled water, and incubated on ice for 30 min to minimize glucose-stimulated Pma1p activity. Cells were resuspended in homogenising medium (50 mM Tris pH 7.5, 2 mM EDTA and 1 mM phenylmethylsulfonyl fluoride) and disrupted using a Braun Homogeniser. Cell debris and unbroken cells were removed by centrifuging at 2,000×g at 4° C. for 10 min. A crude membrane fraction was isolated from the cell-free supernatant by centrifuging at 30,000×g at 4° C. for 45 min. Plasma membranes were prepared by centrifugation of the supernatant obtained after selective precipitation of mitochondria at pH 5.2 as described previously (Goffeau, A. and Dufour, J. P., 1988). The plasma membranes were resuspended in 10 mM Tris pH 7.0, 0.5 mM EDTA and 20% [v/v] glycerol and stored at −80° C. Protein was determined using a micro-Bradford (Bio-Rad Laboratories, Hercules, Calif. [Bradford, M. M., 1976]) assay with gamma-globulin as standard. Nucleotide triphosphatase activity was measured by incubating the plasma membrane fractions (10 μg) at 30° C. in a final volume of 120 μl containing 6 mM NTP, 7 mM MgSO4 in 59 mM MES-Tris buffer pH 6.0-8.0. To eliminate possible contributions from nonspecific phosphatases, vacuolar, or mitochondrial ATPases, 0.2 mM ammonium molybdate, 50 mM KNO3 and 10 mM NaN3, respectively, were included in assays (Monk B C, et al, 1991). Other ATPase inhibitors (20 μM oligomycin, 20 μM aurovertin B or 100 μM vanadate were added to the reaction where indicated. After 30 min the reaction was stopped by adding 130 μl of a solution containing 1% (w/v) SDS, 0.6 M H2SO4, 1.2% (w/v) ammonium molybdate and 1.6% (w/v) ascorbic acid. Inorganic phosphate released from NTPs was measured at 750 nm after 10 min incubation at room temperature.

[6] = system: AD-PDR5 (Pdr5p); assay: Disk diffusion assay, AD-PDR5; assay type: cell-based, S. cerevisiae; settings: AD-pABC as negative control, 30° C., 48 h
Procedure: as §3, §4

[7] = system: AD-CDR1 (Cdr1p); assay: Disk diffusion assay, AD-CDR1; assay type: cell-based, S. cerevisiae; settings: AD-pABC as negative control, 30° C., 48 h
Procedure: as §3, §4

T1 sequence (P43071 whole entry Q214E/Y427F/T842S/I916V/L1021S/K1177E/E1416A): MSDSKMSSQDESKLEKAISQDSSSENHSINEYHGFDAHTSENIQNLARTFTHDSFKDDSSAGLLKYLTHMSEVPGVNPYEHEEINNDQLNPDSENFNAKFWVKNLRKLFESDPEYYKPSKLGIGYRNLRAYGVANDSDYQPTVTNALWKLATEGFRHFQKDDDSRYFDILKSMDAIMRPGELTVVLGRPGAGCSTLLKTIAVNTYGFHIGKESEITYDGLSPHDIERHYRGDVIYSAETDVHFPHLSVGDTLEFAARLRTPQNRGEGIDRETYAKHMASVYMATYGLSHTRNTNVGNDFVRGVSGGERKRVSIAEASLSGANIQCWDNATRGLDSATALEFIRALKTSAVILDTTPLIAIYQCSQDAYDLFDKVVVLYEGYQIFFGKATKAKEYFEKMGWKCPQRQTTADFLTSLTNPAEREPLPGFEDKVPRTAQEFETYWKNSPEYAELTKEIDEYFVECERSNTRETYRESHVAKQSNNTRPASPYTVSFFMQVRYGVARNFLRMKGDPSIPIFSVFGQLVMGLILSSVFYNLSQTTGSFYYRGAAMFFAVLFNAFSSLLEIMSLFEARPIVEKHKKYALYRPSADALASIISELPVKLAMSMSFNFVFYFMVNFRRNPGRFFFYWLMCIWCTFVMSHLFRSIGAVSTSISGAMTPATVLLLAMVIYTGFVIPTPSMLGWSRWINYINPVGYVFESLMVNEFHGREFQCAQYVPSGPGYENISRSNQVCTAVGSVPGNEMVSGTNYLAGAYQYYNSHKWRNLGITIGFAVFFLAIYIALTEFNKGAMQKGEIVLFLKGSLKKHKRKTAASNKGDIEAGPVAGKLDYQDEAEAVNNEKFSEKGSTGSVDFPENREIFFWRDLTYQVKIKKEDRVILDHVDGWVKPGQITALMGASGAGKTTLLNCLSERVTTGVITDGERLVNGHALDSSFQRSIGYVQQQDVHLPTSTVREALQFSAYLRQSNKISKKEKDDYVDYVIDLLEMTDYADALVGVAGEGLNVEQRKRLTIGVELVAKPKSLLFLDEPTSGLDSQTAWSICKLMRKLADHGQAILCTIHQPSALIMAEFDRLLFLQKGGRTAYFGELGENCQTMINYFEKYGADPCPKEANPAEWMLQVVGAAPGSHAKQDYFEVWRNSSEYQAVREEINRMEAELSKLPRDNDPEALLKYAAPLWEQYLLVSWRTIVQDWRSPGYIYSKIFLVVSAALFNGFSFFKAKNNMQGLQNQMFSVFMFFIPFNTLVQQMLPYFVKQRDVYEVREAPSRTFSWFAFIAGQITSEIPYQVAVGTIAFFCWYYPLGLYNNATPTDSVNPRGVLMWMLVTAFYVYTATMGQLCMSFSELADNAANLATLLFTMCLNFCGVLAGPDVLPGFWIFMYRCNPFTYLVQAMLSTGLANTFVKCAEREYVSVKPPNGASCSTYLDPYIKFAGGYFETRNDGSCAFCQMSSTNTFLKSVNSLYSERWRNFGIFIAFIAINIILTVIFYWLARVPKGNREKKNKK

Molecule | resistance of AD1002 relative to parental strain in disk assay [2] | resistance/sensitivity in disk diffusion assay [3] | resistance/sensitivity in disk diffusion assay [4] | resistance/sensitivity in disk diffusion assay [6] | resistance/sensitivity in disk diffusion assay [7] | other results
CC(C)[C@@H]1NC(=O)[C@H](C)OC(=O)[C@@H](C(C)C)NC(=O)[C@@H](C(C)C)OC(=O)[C@H](C(C)C)NC(=O)[C@H](C)OC(=O)[C@@H](C(C)C)NC(=O)[C@@H](C(C)C)OC(=O)[C@H](C(C)C)NC(=O)[C@H](C)OC(=O)[C@@H](C(C)C)NC(=O)[C@@H](C(C)C)OC1=O [valinomycin] |  |  |  |  |  | sensitivity of parental strain AD1-8u^− in disk assay [1]: resistant
CN(C/C=C/c1ccccc1)Cc1cccc2ccccc12 [naftifine] | cross-resistance |  |  |  |  | 
C/C=C/C/C=C/CCC(=O)[C@H]1O[C@H]1C(N)=O [cerulenin] |  | resistant | susceptible |  |  | 
CC/C(=C(\c1ccccc1)c1ccc(OCCN(C)C)cc1)c1ccccc1 [tamoxifen] | confers resistance to growth inhibition |  |  |  |  | 
CC[C@H]1O[C@]2(C)[C@H](OC(C)=O)[C@@]1(C)O[C@@H](/C=C/C=C/C=C/c1oc(=O)cc(OC)c1C)[C@@H]2O [aurovertin B] |  |  |  |  |  | sensitivity of AD1002 ATPase/NTPase activity to inhibitor ([5]; aurovertin B 20 μM): insensitive
[O]=[V]([O-])([O-])[O-] [vanadate] |  |  |  |  |  | sensitivity of AD1002 ATPase/NTPase activity to inhibitor ([5]; vanadate 100 μM): completely sensitive
C[C@@H]1C[C@@H]([C@H](O)CC2CC(=O)NC(=O)C2)C(=O)[C@@H](C)C1 [cycloheximide] | confers resistance to growth inhibition | resistant | susceptible | resistances | resistances | 
rhodamine 123 | clear resistance | fully sensitive | susceptible | resistances | resistances | 
rhodamine 6G | clear resistance | fully sensitive | susceptible | resistances | resistances | 
C=C[C@H]1C[N@@]2CC[C@H]1C[C@@H]2[C@@H](O)c1ccnc2ccc(OC)cc12 [quinidine] |  |  |  |  |  | sensitivity of parental strain AD1-8u^− in disk assay [1]: resistant
Clc1ccc(COC(Cn2ccnc2)c2ccc(Cl)cc2Cl)c(Cl)c1 (centres unmarked) [miconazole] |  | detectable resistance | some resistance | resistances | resistances | 
Nc1[nH]c(=O)ncc1F [flucytosine] |  | sensitive | susceptible | sensitivities | sensitivities | 
C[C@@H]1[C@H](O)[C@@H](C)/C=C/C=C/CC/C=C/C=C/C=C/C=C/C(O[C@H]2O[C@H](C)[C@@H](O)[C@H](N)[C@@H]2O)CC2O[C@](O)(CC(O)C(O)CCC(O)CC(O)CC(O)CC(=O)O[C@H]1C)CC(O)C2C(=O)O (some centres unmarked) [nystatin] |  |  |  | sensitivities | sensitivities | 
CN1CCN(CCCN2c3ccccc3Sc3ccc(C(F)(F)F)cc32)CC1 [trifluoperazine] | confers resistance to growth inhibition |  |  |  |  | 
C[C@@H]1[C@H](O)[C@@H](C)/C=C/C=C/C=C/C=C/C=C/C=C/C=C/[C@H](O[C@@H]2O[C@H](C)[C@@H](O)[C@H](N)[C@@H]2O)C[C@@H]2O[C@](O)(C[C@@H](O)C[C@@H](O)[C@H](O)CC[C@@H](O)C[C@@H](O)CC(=O)O[C@H]1C)C[C@H](O)[C@H]2C(=O)O [amphotericin B] |  |  |  | sensitivities | sensitivities | resistance of AD1002 relative to parental strain in disk assay ([2]; listed as Amphotericin B): toxicity in yeast was not modified
CCCCNC(=O)n1c(NC(=O)OC)nc2ccccc21 [benomyl] |  |  |  |  |  | sensitivity of parental strain AD1-8u^− in disk assay [1]: resistant
CO[C@@H]1C[C@@H](C[C@H]2CC[C@H](C)[C@H]([C@@H](C)C(=O)O)O2)O[C@]2(O[C@](C)([C@H]3CC[C@@](C)([C@@H]4O[C@@H]([C@H]5O[C@@](O)(CO)[C@H](C)C[C@@H]5C)C[C@@H]4C)O3)C[C@H]2C)[C@@H]1C [nigericin] | confers resistance to growth inhibition |  |  |  |  | 
COc1ccc(CCN(C)CCCC(C#N)(c2ccc(OC)c(OC)c2)C(C)C)cc1OC (centres unmarked) [verapamil] | confers resistance to growth inhibition |  |  |  |  | 
CC[C@H]1/C=C/C=C/C[C@@H](C)[C@H](O)[C@@](C)(O)C(=O)[C@@H](C)[C@H](O)[C@@H](C)C(=O)[C@@H](C)[C@H](O)[C@@H](C)/C=C/C(=O)O[C@@H]2[C@H](C)[C@H](CC1)O[C@]1(CC[C@H](C)[C@H](C[C@@H](C)O)O1)[C@H]2C [oligomycin] |  |  |  |  |  | sensitivity of parental strain AD1-8u^− in disk assay [1]: resistant
